Values quoted from earlier work, collected in patent US20210220430A1, “USE OF NOD2 AGONIST FOR THE TREATMENT, PROPHYLAXIS AND/OR DELAY OF THE ONSET OF MULTIPLE SCLEROSIS AND ALZHEIMER?S DISEASE” (UNIVERSITE LAVAL, priority 2018, published 2021).

Biological target: NOD2 (Homo sapiens, UniProt Q9HC29)
Conditions: compared with classical N-acetyl MDP

Sequence of NOD2 (Q9HC29 whole entry, species assumed): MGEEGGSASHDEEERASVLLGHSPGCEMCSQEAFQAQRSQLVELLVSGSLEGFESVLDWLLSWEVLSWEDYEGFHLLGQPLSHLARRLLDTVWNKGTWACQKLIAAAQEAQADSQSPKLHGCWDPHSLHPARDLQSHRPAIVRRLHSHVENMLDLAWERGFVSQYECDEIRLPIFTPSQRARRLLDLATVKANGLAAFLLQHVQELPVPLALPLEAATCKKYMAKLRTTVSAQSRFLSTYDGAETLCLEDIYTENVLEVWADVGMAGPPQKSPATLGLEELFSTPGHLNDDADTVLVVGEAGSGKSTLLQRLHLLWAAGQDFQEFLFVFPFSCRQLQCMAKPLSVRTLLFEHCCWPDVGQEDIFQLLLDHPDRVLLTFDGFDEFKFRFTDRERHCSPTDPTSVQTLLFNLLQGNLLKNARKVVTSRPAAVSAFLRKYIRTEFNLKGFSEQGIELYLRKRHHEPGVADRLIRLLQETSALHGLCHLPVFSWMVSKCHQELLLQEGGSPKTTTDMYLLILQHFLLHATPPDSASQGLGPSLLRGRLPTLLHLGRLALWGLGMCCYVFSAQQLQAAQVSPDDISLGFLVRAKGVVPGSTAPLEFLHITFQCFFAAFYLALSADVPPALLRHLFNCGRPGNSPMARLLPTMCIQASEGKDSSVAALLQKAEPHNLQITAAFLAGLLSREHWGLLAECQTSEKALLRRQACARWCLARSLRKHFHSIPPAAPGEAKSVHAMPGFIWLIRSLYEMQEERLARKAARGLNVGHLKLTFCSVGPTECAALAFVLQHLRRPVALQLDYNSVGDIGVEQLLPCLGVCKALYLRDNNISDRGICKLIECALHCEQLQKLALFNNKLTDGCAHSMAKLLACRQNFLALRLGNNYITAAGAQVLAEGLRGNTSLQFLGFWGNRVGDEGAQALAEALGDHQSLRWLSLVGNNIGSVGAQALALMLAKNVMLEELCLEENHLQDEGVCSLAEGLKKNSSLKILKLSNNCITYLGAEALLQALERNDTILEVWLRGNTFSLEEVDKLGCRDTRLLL

- NOD2 agonist potency at stimulating inflammatory genes: more potent
SMILES: C[C@@H](NC(=O)[C@@H](C)OC1C(NC(=O)CO)[C@@H](O)OC(CO)[C@H]1O)C(=O)NC(CCC(=O)O)C(N)=O (stereo partly shown) [N-glycolyl MDP]
